Source: patent publication US8884013B2, “Polymorphs of Dasatinib, preparation methods and pharmaceutical compositions thereof” (Nan Jing Cavendish Bio-Engineering Technology Co., Ltd., priority 2010, dated 2014)

Experiment: Comparative test on stability: destruction experiment, related substances by HPLC
Type: physicochemical
Procedure: The methods of destruction experiment of the Polymorph I and II of this invention (hereinafter referred to as ‘Polymorph I’ and ‘Polymorph II’) contrasting with the Polymorph A of Dasatinib prepared by the method in CN200580011916.6 (hereinafter referred to as ‘916.6 Polymorph A’) and results of stability are followed:
Oxidation destruction: 50 mg of sample weighted accurately was added into measuring flask of 100 mL, and 10 mL 30% H2O2 was added. After standing at room temperature for 2 hour, the mixture was diluted with mobile phase to scale and shook to be homogeneous, and determined by HPLC.
Acid destruction: 50 mg of sample weighted accurately was added into measuring flask of 100 mL, and 10 mL 1 mol/L HCl solution was added. After standing at 40° C. for 1 hour, an equal amount of 1 mol/L NaOH solution was added for neutralization. Then the mixture was diluted with mobile phase to scale and shook to be homogeneous, and determined by HPLC.
Alkali destruction: 50 mg of sample weighted accurately was added into measuring flask of 100 mL, and 10 mL 1 mol/L NaOH solution was added. After standing at 40° C. for 1 hour, an equal amount of 1 mol/L HCl solution was added for neutralization. Then the mixture was diluted with mobile phase to scale and shook to be homogeneous, and determined by HPLC.
Illumination destruction: 50 mg of sample weighted accurately was added into measuring flask of 100 mL, dissolved and diluted with mobile phase to be the solution containing 0.5 mg Dasatinib per milliliter. After standing under illumination of 4000 lx for 6 hour, the mixture was determined by HPLC.
High temperature destruction: 50 mg of sample weighted accurately was added into measuring flask of 100 mL, dissolved and diluted with mobile phase to be the solution containing 0.5 mg Dasatinib per milliliter. After standing in homothermal water bath of 60° C. for 4 hour, the mixture was cooled and then determined by HPLC.
Related Substances Determination
HPLC conditions and system applicability: octadecylsilane bonded silica as the filler; 0.05 mol/L of potassium dihydrogen phosphate (adjusted to pH 2.5 by phosphoric acid, 0.2% triethylamine)-methanol (45:55) as the mobile phase; detection wavelength was 230 nm; the number of theoretical plates should be not less than 2000, calculated according to the peak of Dasatinib. The resolution of the peak of Dasatinib from the peaks of adjacent impurities should meet requirements.
Determination method: sample was dissolved in mobile phase to be the solution containing 0.5 mg per milliliter. 20 μL of such solution was injected into liquid chromatograph, and chromatogram was recorded until the sixfold retention time of major component peak. If there were impurities peaks in the chromatogram of sample solution, total impurities and any single impurity were calculated by normalization method on the basis of peak area.

SMILES: Cc1nc(Nc2ncc(C(=O)Nc3c(C)cccc3Cl)s2)cc(N2CCN(CCO)CC2)n1 [916.6 Polymorph A, N-(2-chloro-6-methylphenyl)-2-[[6-[4-(2-hydroxyethyl)-1-piperazinyl]-2-methyl-4-pyrimidyl]amino]-5-thiazolformamide, reference compound]
- Stability by comparison with Polymorph I: worse performance in stability
- Impurity tR3.580 (1 mol/L acid destruction): 0.01%
- Impurity tR4.106 (1 mol/L acid destruction): 0.02%
- Impurity tR5.001 (1 mol/L acid destruction): 0.02%
- Total impurities (1 mol/L acid destruction (HCl, 40° C., 1 hour)): 0.06%
- Impurity tR4.107 (1 mol/L alkali destruction): 0.01%
- Impurity tR5.007 (1 mol/L alkali destruction): 0.03%
- Impurity tR5.351 (1 mol/L alkali destruction): 0.03%
- Impurity tR8.943 (1 mol/L alkali destruction): 0.01%
- Total impurities (1 mol/L alkali destruction (NaOH, 40° C., 1 hour)): 0.11%
- Impurity tR4.135 (before destruction): 0.02%
- Impurity tR5.092 (before destruction): 0.02%
- Impurity tR5.523 (before destruction): 0.03%
- Total impurities (before destruction): 0.07%
- Impurity tR4.118 (high temperature destruction): 0.02%
- Impurity tR5.081 (high temperature destruction): 0.03%
- Impurity tR5.502 (high temperature destruction): 0.03%
- Total impurities (high temperature destruction (60° C. water bath, 4 hour, in solution)): 0.08%
- Impurity tR2.456 (illumination destruction): 0.30%
- Impurity tR3.732 (illumination destruction): 0.14%
- Impurity tR4.589 (illumination destruction): 0.11%
- Impurity tR5.088 (illumination destruction): 0.06%
- Impurity tR5.503 (illumination destruction): 0.19%
- Impurity tR10.095 (illumination destruction): 0.82%
- Total impurities (illumination destruction (4000 lx, 6 hour, in solution)): 1.89%
- Impurity tR4.123 (oxidation destruction): 0.01%
- Impurity tR4.584 (oxidation destruction): 0.02%
- Impurity tR5.089 (oxidation destruction): 0.02%
- Impurity tR5.504 (oxidation destruction): 0.05%
- Impurity tR9.450 (oxidation destruction): 2.30%
- Total impurities (oxidation destruction (30% H2O2, room temperature, 2 hour)): 2.41%
